From patent US6838477B2, “Lactacystin analogs” (President and Fellows of Harvard College, priority 1995, dated 2005)
“Also recorded” adds a separate entry of the source. Peptide text beside a SMILES is read from it. * marks the point of attachment. Cbz = O=C(OCc1ccccc1)*

How the values were obtained:
[1] = target: T1, 20S proteasome chymotrypsin-like activity (Bos taurus, UniProt Q32KL2); assay: Kinetics of inhibition of 20S proteasome chymotrypsin-like activity (Suc-LLVY-AMC); format: biochemical, bovine; details: for κassoc = κobs/[I], Chymotrypsin-like activity (Suc-LLVY-AMC): 25° C.
T1 construct: from tissue; host or cells: bovine brain
Description: (§1) Experiments involving the proteasome were performed as follows: 20S proteasome (˜5 ng/μl) in 10 mM Tris-HCl, pH 7.5, 1 mM EDTA was incubated at 25° C. in the presence of lactacystin or lactacystin analogs in DMSO or MeOH [not exceeding 5% (v/v)]. Aliquots for fluorescence assay were removed at various times following addition of compound and diluted in 10 mM Tris-HCl, pH 7.5, 1 mM EDTA containing fluorogenic peptide substrates (100 μM final). Suc-LLVY-AMC, Cbz-GGR-βNA and […] (AMC=7-amido-4-methylcoumarin; βNA=β-naphthylamide) were used to assay for the chymotrypsin-like, trypsin-like and peptidylglutamyl-peptide hydrolyzing activities, respectively.
(§2) Fluorescent emission at 460 nm with excitation at 380 nm was measured for AMC-containing substrates, and emission at 410 nm with excitation at 335 nm was measured for βNA-containing substrates. The fluorescence assays were conducted at 25° C., each experiment was performed at least three times, and values represent mean±standard deviation.
(§3) The reversibility of the inhibitory effects was assessed by measuring residual peptidase activity after removal of excess inhibitor by extensive serial dilution/ultrafiltration.

[2] = target: T2, Calpain II (Homo sapiens, UniProt P17655); assay: Selectivity of protease inhibition: calpain II; format: biochemical
T2 sequence (P17655 1-700): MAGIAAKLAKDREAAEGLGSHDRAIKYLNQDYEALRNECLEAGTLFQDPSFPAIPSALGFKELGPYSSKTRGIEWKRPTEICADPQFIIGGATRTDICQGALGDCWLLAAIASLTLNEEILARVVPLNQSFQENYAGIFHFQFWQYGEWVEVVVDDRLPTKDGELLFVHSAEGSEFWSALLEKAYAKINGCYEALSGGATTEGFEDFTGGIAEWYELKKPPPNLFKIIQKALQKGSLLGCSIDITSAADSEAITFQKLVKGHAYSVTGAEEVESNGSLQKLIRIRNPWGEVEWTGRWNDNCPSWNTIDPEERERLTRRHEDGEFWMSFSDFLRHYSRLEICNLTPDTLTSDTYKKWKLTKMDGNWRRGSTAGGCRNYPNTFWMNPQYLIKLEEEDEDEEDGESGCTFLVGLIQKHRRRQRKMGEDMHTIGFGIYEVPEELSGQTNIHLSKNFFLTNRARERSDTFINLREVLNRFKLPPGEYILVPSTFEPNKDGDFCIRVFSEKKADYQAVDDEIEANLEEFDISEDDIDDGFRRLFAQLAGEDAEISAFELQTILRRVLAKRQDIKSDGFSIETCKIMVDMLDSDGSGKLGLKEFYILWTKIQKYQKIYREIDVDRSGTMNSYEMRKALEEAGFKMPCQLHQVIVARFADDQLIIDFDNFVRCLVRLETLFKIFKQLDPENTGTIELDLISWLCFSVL
T2 sequence (P04632 1-268 partner): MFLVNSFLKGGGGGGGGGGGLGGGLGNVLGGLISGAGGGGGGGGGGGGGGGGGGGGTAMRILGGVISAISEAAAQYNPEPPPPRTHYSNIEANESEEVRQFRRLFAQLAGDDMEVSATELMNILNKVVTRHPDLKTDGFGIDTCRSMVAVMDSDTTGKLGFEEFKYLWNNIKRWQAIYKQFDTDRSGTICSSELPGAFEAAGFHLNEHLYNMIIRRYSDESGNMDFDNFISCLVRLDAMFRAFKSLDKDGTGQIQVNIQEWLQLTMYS

[3] = target: T3, Calpain I (Homo sapiens, UniProt P07384); assay: Selectivity of protease inhibition: calpain I; format: biochemical
T3 sequence (P07384 1-714): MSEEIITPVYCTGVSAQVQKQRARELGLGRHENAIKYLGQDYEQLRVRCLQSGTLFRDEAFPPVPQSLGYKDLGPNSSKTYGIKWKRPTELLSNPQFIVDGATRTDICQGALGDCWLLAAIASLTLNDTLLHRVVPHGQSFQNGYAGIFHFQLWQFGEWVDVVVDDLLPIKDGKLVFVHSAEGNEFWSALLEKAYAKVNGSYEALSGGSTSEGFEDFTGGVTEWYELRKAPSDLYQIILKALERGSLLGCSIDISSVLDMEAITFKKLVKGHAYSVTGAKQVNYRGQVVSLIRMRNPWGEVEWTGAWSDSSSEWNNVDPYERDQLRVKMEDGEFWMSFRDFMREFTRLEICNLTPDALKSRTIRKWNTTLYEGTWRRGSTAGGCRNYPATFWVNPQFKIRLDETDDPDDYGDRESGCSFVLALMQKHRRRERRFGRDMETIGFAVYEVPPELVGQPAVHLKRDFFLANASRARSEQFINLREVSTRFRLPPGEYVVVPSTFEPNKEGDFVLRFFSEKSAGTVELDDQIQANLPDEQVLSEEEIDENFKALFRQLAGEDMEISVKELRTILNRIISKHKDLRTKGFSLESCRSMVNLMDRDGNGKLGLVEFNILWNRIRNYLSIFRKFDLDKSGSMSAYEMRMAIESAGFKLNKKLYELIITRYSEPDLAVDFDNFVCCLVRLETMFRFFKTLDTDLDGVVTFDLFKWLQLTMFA
T3 sequence (P04632 1-268 partner): T2 sequence (P04632 1-268 partner)

[4] = target: T4, Trypsin (Bos taurus, UniProt P00760); assay: Selectivity of protease inhibition: trypsin; format: biochemical
T4 construct: gene PRSS1
T4 sequence (P00760 24-246): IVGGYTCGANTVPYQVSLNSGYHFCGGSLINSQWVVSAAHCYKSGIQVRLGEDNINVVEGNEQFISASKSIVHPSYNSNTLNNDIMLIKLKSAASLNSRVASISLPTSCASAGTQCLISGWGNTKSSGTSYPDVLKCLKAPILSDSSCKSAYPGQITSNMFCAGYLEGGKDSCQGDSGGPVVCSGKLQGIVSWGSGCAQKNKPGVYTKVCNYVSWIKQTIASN

[5] = target: 20S proteasome peptidylglutamyl-peptide hydrolyzing activity (Bos taurus, UniProt Q3MHN0)
Description: as §1, §2, §3

[6] = target: T5, Papain (Carica papaya, UniProt P00784); assay: Selectivity of protease inhibition: papain; format: biochemical
T5 sequence (P00784 134-345): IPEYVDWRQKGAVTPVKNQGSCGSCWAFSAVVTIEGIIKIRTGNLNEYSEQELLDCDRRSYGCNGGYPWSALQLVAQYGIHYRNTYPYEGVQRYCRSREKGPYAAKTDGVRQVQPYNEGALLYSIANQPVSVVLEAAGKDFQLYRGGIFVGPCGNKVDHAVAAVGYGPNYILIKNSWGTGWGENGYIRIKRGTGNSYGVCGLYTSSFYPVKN

[7] = target: T6, 20S proteasome trypsin-like activity (Bos taurus, UniProt Q2TBP0); assay: Kinetics of inhibition of 20S proteasome trypsin-like activity (Cbz-GGR-βNA); format: biochemical, bovine
T6 construct: from tissue; host or cells: bovine brain
Description: as §1, §2, §3

[8] = target: Cathepsin B (Homo sapiens, UniProt P07858); assay: Selectivity of protease inhibition: cathepsin B; format: biochemical
[9] = target: α-Chymotrypsin (Bos taurus, UniProt P00766, DEL14-15/DEL147-148); assay: Selectivity of protease inhibition: α-chymotrypsin; format: biochemical
[10] = test system: IκB-α; assay: TNF-α dependent degradation of IκB-α in Hela cells (immunoblot); format: cell-based, human; details: 40 μM, 1 h pretreatment, 1,000 U/ml TNF-α
Description: Hela cells were plated onto 6-well plates in DME plus 10% fetal calf serum (3 mls/well). Cells were then pretreated with 0.125% DMSO 40 μM […] (carbobenzoxyl-leucinyl-leucinyl-leucinal-H)(40 μM, lanes 103), or 5 μM β-lactone for one hour, followed by treatment with 1,000 U/ml TNF-α or phosphate buffered saline (PBS). Cells were harvested after 0 min, 20 min, or 40 min of further incubation at 37° C. Cells were then lysed in buffer containing NP-40 and protease inhibitors, and the proteins separated on a 10% SDS-polyacrylamide gel. The proteins were then transferred to nitrocellulose and probed with antibodies against the C-terminal 20 amino acids of human IκB-α.

[11] = test system: PC12 cells; details: Tsubuki et al. 1993; cited from earlier work
[12] = test system: p105 to p50 processing; assay: Proteasome dependent p105 to p50 processing in transfected COS cells (pulse-chase); format: cell-based, African green monkey; details: 50 μM, 1 h pretreatment, 2 hour chase
Description: COS cells were plated onto 100 mm dishes, then, with DEAE-Destran, either mock transfected, or transfected with 3 μg of pcDNA plasmid containing the human p105 cDNA. Forty-eight hrs after transfection, cells were pretreated for 1 hour with 0.5% DMSO, 50 μM calpain inhibitor II, 50 μM MG132, or 10 μM β-lactone. Cells were then pulse labelled with 250 uCi/plate of ^35S-methionine/cysteine for 15 minutes, and either harvested immediately or followed by a 2 hour chase with excess unlabelled methionine and cysteine. Cells were then lysed with SDS/Tris, and proteins were immunoprecipitated with anti-p50 antibodies (recognize the N-terminal half of the p105 protein). These proteins were then separated on a 10% SDS-polyacrylamide gel, which was then fixed, dried, and exposed to autoradiographic film.

[13] = target: T7, 20S proteasome (Bos taurus, UniProt Q2TBP0+Q32KL2); assay: Labeling of 20S proteasome subunits by tritiated compound, reverse-phase HPLC separation; format: binding, bovine
T7 construct: from tissue; host or cells: bovine brain
Description: This peak was isolated and treated with 10 μM [^3H]lactacystin or 10 μM [^3H]β-lactone for 24 h at 25° C. Trifluoroacetic acid (TFA) was added to 0.1%, and the sample was allowed to stand at room temperature for 20 min. Reverse-phase HPLC was then carried out at room temperature using a Vydac C4 column (300 Å/4.6×150 mm) with 20-40% acetonitrile/0.1% TFA over 10 min and then 40-55% acetonitrile/0.1% TFA over 30 min (flow rate=0.8 ml/min). An IN/US β-RAM in-line scintillation detector was used to monitor radioactivity.

[14] = relative to kassoc for chymotrypsin-like activity
[15] = residual activity after removal of excess inhibitor by serial dilution/ultrafiltration

6-deoxylactacystin
κassoc = κobs/[I], Chymotrypsin-like activity (Suc-LLVY-AMC) ([1]; compound 12.5 μM): No inhibition

CC(=O)NC(CSC(=O)C1(C(O)C(C)C)NC(=O)C(C)C1O)C(=O)O [(6R,7S)Lactacystin (6-epi,7-epi), (6R,7S)-lactacystin]
κassoc = κobs/[I], Chymotrypsin-like activity (Suc-LLVY-AMC) ([1]; compound 12.5 μM): No inhibition

CC(=O)N[C@@H](CSC(=O)[C@]1([C@@H](O)C(C)C)NC(=O)[C@H](C)[C@@H]1O)C(=O)O [Lactacystin, lactacystin]
Effect of lactacystin (100 μM) on Calpain II ([2]; 100 μM, Suc-LLVY-AMC, 25° C.): No inhibition | inhibition of calpain II activity ([2]; concentration not given): do not inhibit | Effect of lactacystin (100 μM) on Calpain I ([3]; 100 μM, Suc-LLVY-AMC, 25° C.): No inhibition | inhibition of calpain I activity ([3]; concentration not given): do not inhibit | Effect of lactacystin (100 μM) on Trypsin ([4]; 100 μM, Cbz-GGR-βNA, 25° C.): No inhibition | inhibition of trypsin activity ([4]; concentration not given): do not inhibit | κassoc = κobs/[I], Peptidylglutamyl-peptide hydrolyzing activity (Cbz-LLE-βNA) ([5]; compound 100 μM, 25° C.): 4.2 ± 0.6 s^−1M^−1 | PGPH activity inhibited more slowly than chymotrypsin-like activity [5, 14]: 50 fold | reversibility of inhibition of PGPH activity [5, 15]: reversibly; also recorded: return of the catalytic activity | Effect of lactacystin (100 μM) on Papain ([6]; 100 μM, Cbz-RR-AMC, 25° C.): No inhibition | inhibition of papain activity ([6]; concentration not given): do not inhibit | κassoc = κobs/[I], Chymotrypsin-like activity (Suc-LLVY-AMC) ([1]; compound 10 μM): 194 ± 15 s^−1M^−1 | kinact/KI ([1]; read-out: kassoc, apparent second-order rate constant for association, chymotrypsin-like activity): 194 ± 15 M⁻¹ s⁻¹ | reversibility of inhibition of chymotrypsin-like activity [1, 15]: irreversibly; also recorded: still completely inhibited | κassoc = κobs/[I], Trypsin-like activity (Cbz-GGR-βNA) ([7]; compound 10 μM, 25° C.): 10.1 ± 1.8 s^−1M^−1 | trypsin-like activity inhibited more slowly than chymotrypsin-like activity [7, 14]: 20 fold | reversibility of inhibition of trypsin-like activity [7, 15]: irreversibly; also recorded: still completely inhibited | Effect of lactacystin (100 μM) on Cathepsin B ([8]; 100 μM, Cbz-RR-AMC, 25° C.): No inhibition | inhibition of cathepsin activity ([8]; concentration not given): do not inhibit | Effect of lactacystin (100 μM) on α-Chymotrypsin ([9]; 100 μM, Suc-LLVY-AMC, 25° C.): No inhibition | inhibition of α-chymotrypsin activity ([9]; concentration not given): do not inhibit

CC(C)C[C@@H](C=O)NC(=O)[C@H](CC(C)C)NC(=O)[C@H](CC(C)C)NC(=O)OCc1ccccc1 [MG132, carbobenzoxyl-leucinyl-leucinyl-leucinal-H] (Cbz-Leu-Leu-Leu-aldehyde)
degradation of IκB after TNF induction [10]: blocks the degradation | phosphorylated form of IκB [10]: stabilizes the phosphorylated form | optimal concentration for inducing neurite outgrowth [11]: 30 nM | processing of p105 to p50 (appearance of p50) [12]: completely blocks the appearance of p50

CC(=O)N[C@@H](CSC(=O)[C@]1([C@@H](O)C(C)C)NC(=O)[C@H](C)[C@@H]1O)C(=O)O [[^3H]lactacystin]
association of radioactivity with HPLC-separated proteasome subunit peaks ([13]; 10 μM, 24 h at 25° C., first peak ~32 kDa (α chain), second peak ~24 kDa (X/MB1)): exclusively with the first two peaks | labeling of the first peak (~32 kDa protein) ([13]; 24 hour reaction): significant labeling

CSCC[C@@H](C=O)NC(=O)[C@H](CC(C)C)NC(=O)[C@H](CC(C)C)NC(C)=O [calpain inhibitor II] (Ac-Leu-Leu-Met-aldehyde)
processing of p105 to p50 (appearance of p50) [12]: no effect
